Measurements taken from ChEMBL document CHEMBL5120920, “A Mitochondria-Targeted Phenylbutyric Acid Prodrug Confers Drastically Improved Anticancer Activities” (J Med Chem, 2022).
The source made the active and inactive calls. No cut-off for these calls is given here.

Legend:
A549 = assay: Antiproliferative activity against human A549 cells assessed as inhibition of cell viability incubated for 72 hrs by MTT assay; assay type: functional, cell-based; settings: A549, 72 h
A-375 [1] = assay: Antiproliferative activity against human A-375 cells assessed as inhibition of cell viability incubated for 72 hrs by MTT assay; assay type: functional, cell-based; settings: A-375, 72 h
MDA-MB-231 = assay: Antiproliferative activity against human MDA-MB-231 cells assessed as inhibition of cell viability incubated for 72 hrs by MTT assay; assay type: functional, cell-based; settings: MDA-MB-231, 72 h
MCF7 = assay: Antiproliferative activity against human MCF7 cells assessed as inhibition of cell viability incubated for 72 hrs by MTT assay; assay type: functional, cell-based; settings: MCF7, 72 h
[2] = Cytotoxicity against human L02 cells assessed as cell growth inhibition measured after 72 hrs by MTT assay; assay type: toxicity, cell-based
[3] = Cytotoxicity against human HaCaT cells assessed as cell growth inhibition measured after 72 hrs by MTT assay; assay type: toxicity, cell-based
[4] = Cytotoxicity against HUVEC assessed as cell growth inhibition measured after 72 hrs by MTT assay; assay type: toxicity, cell-based; settings: human
[5] = Cytotoxicity against HEK293T cells assessed as cell growth inhibition measured after 72 hrs by MTT assay; assay type: toxicity, cell-based, HEK-293T; settings: human
[6] = Efflux ratio of apparent permeability from basolateral to apical side over apical to basolateral side in human Caco2 cells by LC-MS/MS analysis; assay type: ADME, cell-based; settings: Caco-2
[7] = Apparent permeability across apical to basolateral side in human Caco-2 cells at 2 uM measured after 2 hrs by LC-MS/MS analysis; assay type: ADME, cell-based
A-375 [8] = assay: Inhibition of glycolysis in human A-375 cells assessed as reduction in extracellular acidification rate at 5 mM measured after 4 hrs; assay type: functional, cell-based
A-375 [9] = assay: Effect on mitochondrial bio-energestics in human A-375 cells assessed as increase in OCR/ECRA ratio at 5 mM measured after 4 hrs; assay type: functional, cell-based
[10] = Apparent permeability across basolateral to apical side in human Caco-2 cells at 2 uM measured after 2 hrs by LC-MS/MS analysis; assay type: ADME, cell-based
A-375 [11] = assay: Induction of cell cycle arrest in human A-375 cells assessed as accumulation at G1 phase at 10 mM incubated for 24 hrs by PI staining based flow cytometry analysis (reference value: 68.07 %); assay type: functional
A-375 [12] = assay: Induction of cell cycle arrest in human A-375 cells assessed as accumulation at G2 phase at 10 mM incubated for 24 hrs by PI staining based flow cytometry analysis (reference value: 7.92 %); assay type: functional
A-375 [13] = assay: Induction of cell cycle arrest in human A-375 cells assessed as accumulation at S phase at 10 mM incubated for 24 hrs by PI staining based flow cytometry analysis (reference value: 24.01 %); assay type: functional
A-375 [14] = assay: Antitumor activity against human A-375 cells xenografted in nude mouse assessed as tumor inhibition ratio at 80 mg/kg, ip measured once every two days for 14 days; assay type: functional; settings: A-375, 336 h, time 14 day, read-out: TGI
A-375 [15] = assay: Induction of cell cycle arrest in human A-375 cells assessed as accumulation at S phase at 10 uM incubated for 24 hrs by PI staining based flow cytometry analysis (reference value: 24.01 %); assay type: functional
A-375 [16] = assay: Induction of cell cycle arrest in human A-375 cells assessed as accumulation at G2 phase at 10 uM incubated for 24 hrs by PI staining based flow cytometry analysis (reference value: 7.92 %); assay type: functional
A-375 [17] = assay: Induction of cell cycle arrest in human A-375 cells assessed as accumulation at G1 phase at 10 uM incubated for 24 hrs by PI staining based flow cytometry analysis (reference value: 68.07 %); assay type: functional
A-375 [18] = assay: Antitumor activity against human A-375 cells implanted in BALB/c mouse assessed as suppression of tumor growth at 20 mg/kg, ip measured once every two days for 14 days; assay type: functional, organism-based; settings: time 14.0 day
A-375 [19] = assay: Antitumor activity against human A-375 cells implanted in BALB/c mouse assessed as shrinkage of tumor tissue at 20 mg/kg, ip measured once every two days for 14 days; assay type: functional, organism-based; settings: time 14.0 day
[20] = Toxicity in BALB/c mouse assessed as change in body weight at 20 mg/kg, iv measured once every two days for 7 days; assay type: organism-based; settings: in vivo, 168 h, time 7 day
A-375 [21] = assay: Antitumor activity against human A-375 cells implanted in BALB/c mouse assessed as reduction in tumor weight at 20 mg/kg, ip measured once every two days for 14 days; assay type: functional, organism-based; settings: time 14.0 day

Compound	IC50 (A549) [µM]	IC50 (A-375 [1]) [µM]	IC50 (MDA-MB-231) [µM]	IC50 (MCF7) [µM]	further results
O=C(CCCc1ccccc1)NCC(CNC(=O)CCCc1ccccc1)(CNC(=O)CCCc1ccccc1)NC(=O)CCCCCCCCC[P+](c1ccccc1)(c1ccccc1)c1ccccc1	0.81	0.42	0.31	0.54	
O=C(CC[P+](c1ccccc1)(c1ccccc1)c1ccccc1)NC(COC(=O)CCCc1ccccc1)(COC(=O)CCCc1ccccc1)COC(=O)CCCc1ccccc1	1.01	1.75	2.59	0.97	
O=C(CCCc1ccccc1)NCC(CNC(=O)CCCc1ccccc1)(CNC(=O)CCCc1ccccc1)NC(=O)CCCCCCCCCCC[P+](c1ccccc1)(c1ccccc1)c1ccccc1	0.57	0.36	0.24	0.44	
O=C(O)CCC[P+](c1ccccc1)(c1ccccc1)c1ccccc1	> 20	> 20	> 20	> 20	
Cc1ccc([P+](CCCCCCCCCC(=O)O)(c2ccc(C)cc2)c2ccc(C)cc2)cc1	> 20	> 20	> 20	> 20	
O=C(O)CCCCCCC[P+](c1ccccc1)(c1ccccc1)c1ccccc1	> 20	> 20	> 20	> 20	
N#Cc1ccc([P+](CCCCCCCCCC(=O)NC(CNC(=O)CCCc2ccccc2)(CNC(=O)CCCc2ccccc2)CNC(=O)CCCc2ccccc2)(c2ccc(C#N)cc2)c2ccc(C#N)cc2)cc1	4.06	> 10	3.96	8.56	
COC(=O)CCCc1ccccc1		> 2000			
COc1cccc([P+](CCCCCCCCCC(=O)O)(c2cccc(OC)c2)c2cccc(OC)c2)c1	> 20	> 20	> 20	> 20	
O=C(O)CCCC[P+](c1ccccc1)(c1ccccc1)c1ccccc1	> 20	> 20	> 20	> 20	
O=C(CCCc1ccccc1)NCC(CNC(=O)CCCc1ccccc1)(CNC(=O)CCCc1ccccc1)NC(=O)CCC[P+](c1ccccc1)(c1ccccc1)c1ccccc1	624	4.56	9.27	2.72	
O=C(CCCc1ccccc1)NCC(CNC(=O)CCCc1ccccc1)(CNC(=O)CCCc1ccccc1)NC(=O)CCCC[P+](c1ccccc1)(c1ccccc1)c1ccccc1	2.15	232	3.51	2.02	
CN(C)c1ccc([P+](CCCCCCCCCC(=O)O)(c2ccc(N(C)C)cc2)c2ccc(N(C)C)cc2)cc1	1.87	1.25	1.94	1.19	
O=C(CCC[P+](c1ccccc1)(c1ccccc1)c1ccccc1)NC(COC(=O)CCCc1ccccc1)(COC(=O)CCCc1ccccc1)COC(=O)CCCc1ccccc1	0.65	1.29	1.28	0.62	
O=C(O)CCCCCCCCC[P+](c1ccccc1)(c1ccccc1)c1ccccc1	> 20	> 20	> 20	> 20	
CCOC(=O)CCCc1ccccc1		> 2000			
O=C(O)CC[P+](c1ccccc1)(c1ccccc1)c1ccccc1	> 20	> 20	> 20	> 20	

Compound	IC50 (A549) [µM]	IC50 (A-375 [1]) [µM]	IC50 (MDA-MB-231) [µM]	IC50 (MCF7) [µM]	further results
O=C(CCCc1ccccc1)NCC(CNC(=O)CCCc1ccccc1)(CNC(=O)CCCc1ccccc1)NC(=O)CCCCCCCCC[P+](c1ccc(C(F)(F)F)cc1)(c1ccc(C(F)(F)F)cc1)c1ccc(C(F)(F)F)cc1	2.11	1.98	2.19	1.91	IC50 at 72 h [2]: > 20 µM; IC50 at 72 h [3]: > 20 µM; IC50 at 72 h [4]: > 20 µM; IC50 at 72 h [5]: > 20 µM
COc1cccc2c1C(=O)c1c(O)c3c(c(O)c1C2=O)C[C@@](O)(C(=O)CO)C[C@@H]3O[C@H]1C[C@H](N)[C@H](O)[C@H](C)O1 [DOXORUBICIN]	0.42	0.33	0.47	0.4	
O=C(O)CCCCCCCCCCC[P+](c1ccccc1)(c1ccccc1)c1ccccc1	> 20	> 20	> 20	> 20	
COc1cccc([P+](CCCCCCCCCC(=O)NC(CNC(=O)CCCc2ccccc2)(CNC(=O)CCCc2ccccc2)CNC(=O)CCCc2ccccc2)(c2cccc(OC)c2)c2cccc(OC)c2)c1	0.97	0.66	0.57	0.79	
O=C(O)CCCc1ccccc1	9750	8940	11700	10700	efflux ratio [6]: > 1.54; Papp A→B at 2 h, 2 µM [7]: < 0.48 ×10⁻⁶ cm/s; inhibition (A-375 [8]): Active; Activity (A-375 [9]): Active; Papp B→A at 2 h, 2 µM [10]: 0.74 ×10⁻⁶ cm/s; Activity (A-375 [11]): 87.33%; Activity (A-375 [12]): 5.38%; Activity (A-375 [13]): 7.4%; inhibition in vivo at 80 mg/kg (A-375 [14]): 10%
Cc1ccc([P+](CCCCCCCCCC(=O)NC(CNC(=O)CCCc2ccccc2)(CNC(=O)CCCc2ccccc2)CNC(=O)CCCc2ccccc2)(c2ccc(C)cc2)c2ccc(C)cc2)cc1	0.73	0.62	0.44	0.5	
O=C(CCCc1ccccc1)NCC(CNC(=O)CCCc1ccccc1)(CNC(=O)CCCc1ccccc1)NC(=O)CCCCCCC[P+](c1ccccc1)(c1ccccc1)c1ccccc1	1.42	1.19	0.59	1.31	
O=C(O)CCCCCCCCC[P+](c1ccc(C(F)(F)F)cc1)(c1ccc(C(F)(F)F)cc1)c1ccc(C(F)(F)F)cc1.[Br-]	> 20	> 20	> 20	> 20	Activity (A-375 [15]): 19.88%; Activity (A-375 [16]): 11.68%; Activity (A-375 [17]): 68.44%
O=C(CCCC[P+](c1ccccc1)(c1ccccc1)c1ccccc1)NC(COC(=O)CCCc1ccccc1)(COC(=O)CCCc1ccccc1)COC(=O)CCCc1ccccc1	1.03	2.79	1.57	0.64	
O=C(O)CCCCCCCCC[P+](c1ccc(F)cc1)(c1ccc(F)cc1)c1ccc(F)cc1	> 20	> 20	> 20	> 20	
CCCS(=O)(=O)Nc1ccc(F)c(C(=O)c2c[nH]c3ncc(-c4ccc(Cl)cc4)cc23)c1F [VEMURAFENIB]					Activity (A-375 [18]): Active; Activity (A-375 [19]): Active; Activity [20]: Non-Toxic; Activity (A-375 [21]): Active
O=C(CCCc1ccccc1)NCC(CNC(=O)CCCc1ccccc1)(CNC(=O)CCCc1ccccc1)NC(=O)CCCCCCCCC[P+](c1ccc(F)cc1)(c1ccc(F)cc1)c1ccc(F)cc1	2.19	1.29	1.28	2.26	
O=C(CCCc1ccccc1)NCC(CNC(=O)CCCc1ccccc1)(CNC(=O)CCCc1ccccc1)NC(=O)CCCCC[P+](c1ccccc1)(c1ccccc1)c1ccccc1	7.7	3.26	3.62	2.46	
N#Cc1ccc([P+](CCCCCCCCCC(=O)O)(c2ccc(C#N)cc2)c2ccc(C#N)cc2)cc1	> 20	> 20	> 20	> 20	
O=C(O)CCCCC[P+](c1ccccc1)(c1ccccc1)c1ccccc1	> 20	> 20	> 20	> 20	
O=C(CCCCC[P+](c1ccccc1)(c1ccccc1)c1ccccc1)NC(COC(=O)CCCc1ccccc1)(COC(=O)CCCc1ccccc1)COC(=O)CCCc1ccccc1	1.08	4.66	2.68	0.91	
O=C(CCCc1ccccc1)NCC(CNC(=O)CCCc1ccccc1)(CNC(=O)CCCc1ccccc1)NC(=O)CC[P+](c1ccccc1)(c1ccccc1)c1ccccc1	5.3	5.05	9.64	3.34	
